{"source": "paper PMC10004634", "about": "(PLOS ONE, 2023)", "assay_in_all_cases": "biochemical", "design_in_all_cases": "KINOMEscan scanMAX competition binding, DNA-tagged kinases, qPCR read-out, percent control at 300 nM", "key": {"[1]": {"target": "T1, p38-delta (Homo sapiens, UniProt O15264)", "T1 construct": "gene MAPK13", "T1 sequence (O15264 1-365)": "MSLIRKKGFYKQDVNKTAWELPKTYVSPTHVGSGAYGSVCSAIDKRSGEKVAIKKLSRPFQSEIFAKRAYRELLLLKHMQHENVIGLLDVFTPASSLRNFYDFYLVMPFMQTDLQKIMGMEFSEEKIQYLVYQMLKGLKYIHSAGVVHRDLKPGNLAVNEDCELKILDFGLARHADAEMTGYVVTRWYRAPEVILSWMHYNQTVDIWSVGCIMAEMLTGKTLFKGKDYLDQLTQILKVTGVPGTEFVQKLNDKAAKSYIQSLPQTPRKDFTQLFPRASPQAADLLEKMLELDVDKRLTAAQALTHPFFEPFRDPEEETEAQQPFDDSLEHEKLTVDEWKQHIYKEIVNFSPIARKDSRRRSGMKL"}, "[2]": {"target": "T2, LATS2 (Homo sapiens, UniProt Q9NRM7)", "T2 sequence (Q9NRM7 1-1088)": "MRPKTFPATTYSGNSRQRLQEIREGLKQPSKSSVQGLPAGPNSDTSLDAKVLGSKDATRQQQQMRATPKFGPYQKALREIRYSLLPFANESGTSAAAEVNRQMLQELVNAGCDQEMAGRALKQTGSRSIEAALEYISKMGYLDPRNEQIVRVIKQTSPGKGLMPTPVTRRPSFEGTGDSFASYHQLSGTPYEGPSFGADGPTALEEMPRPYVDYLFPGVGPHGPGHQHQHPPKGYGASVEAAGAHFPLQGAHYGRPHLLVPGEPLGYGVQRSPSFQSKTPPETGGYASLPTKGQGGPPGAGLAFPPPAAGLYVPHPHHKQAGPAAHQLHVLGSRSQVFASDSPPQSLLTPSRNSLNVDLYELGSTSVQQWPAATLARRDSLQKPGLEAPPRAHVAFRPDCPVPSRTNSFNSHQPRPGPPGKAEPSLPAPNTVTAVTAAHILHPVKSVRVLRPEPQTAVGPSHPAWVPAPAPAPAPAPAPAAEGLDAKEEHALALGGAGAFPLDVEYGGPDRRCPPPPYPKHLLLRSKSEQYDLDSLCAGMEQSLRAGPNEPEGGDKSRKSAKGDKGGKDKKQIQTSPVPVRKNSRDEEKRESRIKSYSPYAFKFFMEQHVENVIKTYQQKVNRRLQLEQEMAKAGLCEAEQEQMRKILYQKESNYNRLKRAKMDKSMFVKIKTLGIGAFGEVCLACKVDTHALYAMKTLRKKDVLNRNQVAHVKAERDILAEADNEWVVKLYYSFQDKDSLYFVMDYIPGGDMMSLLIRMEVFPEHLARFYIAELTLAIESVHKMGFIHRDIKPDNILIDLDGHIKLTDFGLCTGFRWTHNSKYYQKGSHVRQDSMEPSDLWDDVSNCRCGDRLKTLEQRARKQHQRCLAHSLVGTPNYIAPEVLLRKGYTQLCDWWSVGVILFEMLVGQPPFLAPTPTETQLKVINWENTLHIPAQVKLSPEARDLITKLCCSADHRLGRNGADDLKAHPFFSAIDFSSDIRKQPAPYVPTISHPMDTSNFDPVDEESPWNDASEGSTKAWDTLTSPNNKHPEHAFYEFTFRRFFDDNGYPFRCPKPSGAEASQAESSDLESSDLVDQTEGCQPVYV"}, "[3]": {"target": "T3, ABL1(F317I)-nonphosphorylated (Homo sapiens, UniProt P00519, F317I)", "T3 construct": "nonphosphorylated"}, "[4]": {"target": "T4, ABL1(H396P)-phosphorylated (Homo sapiens, UniProt P00519, H396P)", "T4 construct": "phosphorylated"}, "[5]": {"target": "EGFR (Homo sapiens, UniProt P00533)", "sequence (P00533 whole entry)": "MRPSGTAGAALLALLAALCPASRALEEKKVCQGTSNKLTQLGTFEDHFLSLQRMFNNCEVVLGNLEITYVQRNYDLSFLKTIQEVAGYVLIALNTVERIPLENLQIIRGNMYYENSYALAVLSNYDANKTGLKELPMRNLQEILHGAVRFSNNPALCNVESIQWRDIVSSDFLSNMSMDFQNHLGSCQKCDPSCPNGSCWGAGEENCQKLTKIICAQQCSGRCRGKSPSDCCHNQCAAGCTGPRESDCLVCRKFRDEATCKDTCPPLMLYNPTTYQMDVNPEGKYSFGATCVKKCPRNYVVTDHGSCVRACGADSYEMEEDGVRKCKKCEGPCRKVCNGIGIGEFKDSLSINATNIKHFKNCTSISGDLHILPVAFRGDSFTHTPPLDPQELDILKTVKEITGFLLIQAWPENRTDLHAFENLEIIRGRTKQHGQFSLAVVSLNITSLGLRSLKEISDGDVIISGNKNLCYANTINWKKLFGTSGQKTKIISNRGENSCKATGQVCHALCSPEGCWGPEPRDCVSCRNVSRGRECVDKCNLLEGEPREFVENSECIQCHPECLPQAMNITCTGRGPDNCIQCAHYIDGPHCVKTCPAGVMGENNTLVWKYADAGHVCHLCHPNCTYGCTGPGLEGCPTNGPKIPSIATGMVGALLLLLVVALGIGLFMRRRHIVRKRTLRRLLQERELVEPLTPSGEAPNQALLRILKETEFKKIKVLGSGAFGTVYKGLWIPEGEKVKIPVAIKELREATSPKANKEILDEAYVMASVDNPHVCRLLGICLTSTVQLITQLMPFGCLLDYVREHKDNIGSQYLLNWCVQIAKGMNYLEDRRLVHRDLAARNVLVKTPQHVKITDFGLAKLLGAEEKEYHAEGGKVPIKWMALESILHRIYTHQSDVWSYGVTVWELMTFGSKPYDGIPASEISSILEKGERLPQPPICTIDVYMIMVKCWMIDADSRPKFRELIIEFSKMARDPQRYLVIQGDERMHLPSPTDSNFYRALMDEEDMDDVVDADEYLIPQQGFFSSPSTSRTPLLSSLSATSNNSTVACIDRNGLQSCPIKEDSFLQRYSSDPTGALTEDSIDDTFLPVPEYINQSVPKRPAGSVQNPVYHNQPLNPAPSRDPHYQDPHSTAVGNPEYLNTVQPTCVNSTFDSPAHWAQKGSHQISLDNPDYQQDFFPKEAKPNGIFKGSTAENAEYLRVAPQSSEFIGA"}, "[6]": {"target": "CDKL3 (Homo sapiens, UniProt Q8IVW4)", "sequence (Q8IVW4 whole entry)": "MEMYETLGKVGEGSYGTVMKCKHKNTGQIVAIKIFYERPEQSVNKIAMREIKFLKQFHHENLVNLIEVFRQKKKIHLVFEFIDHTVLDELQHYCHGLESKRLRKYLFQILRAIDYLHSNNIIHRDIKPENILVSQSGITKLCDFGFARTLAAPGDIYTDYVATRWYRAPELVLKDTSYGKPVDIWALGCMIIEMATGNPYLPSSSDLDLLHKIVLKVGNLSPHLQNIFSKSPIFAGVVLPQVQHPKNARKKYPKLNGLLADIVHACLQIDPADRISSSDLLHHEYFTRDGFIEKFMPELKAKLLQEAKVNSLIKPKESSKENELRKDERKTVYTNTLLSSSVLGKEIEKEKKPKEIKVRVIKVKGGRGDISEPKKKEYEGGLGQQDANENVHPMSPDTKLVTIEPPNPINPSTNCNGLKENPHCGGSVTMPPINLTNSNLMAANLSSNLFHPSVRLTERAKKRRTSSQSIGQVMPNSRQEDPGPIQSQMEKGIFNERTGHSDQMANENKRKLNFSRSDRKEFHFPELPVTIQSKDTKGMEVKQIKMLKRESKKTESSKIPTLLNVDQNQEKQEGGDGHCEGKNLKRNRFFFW"}, "[7]": {"target": "T5, MAP4K2 (Homo sapiens, UniProt Q12851)", "T5 sequence (Q12851 1-820)": "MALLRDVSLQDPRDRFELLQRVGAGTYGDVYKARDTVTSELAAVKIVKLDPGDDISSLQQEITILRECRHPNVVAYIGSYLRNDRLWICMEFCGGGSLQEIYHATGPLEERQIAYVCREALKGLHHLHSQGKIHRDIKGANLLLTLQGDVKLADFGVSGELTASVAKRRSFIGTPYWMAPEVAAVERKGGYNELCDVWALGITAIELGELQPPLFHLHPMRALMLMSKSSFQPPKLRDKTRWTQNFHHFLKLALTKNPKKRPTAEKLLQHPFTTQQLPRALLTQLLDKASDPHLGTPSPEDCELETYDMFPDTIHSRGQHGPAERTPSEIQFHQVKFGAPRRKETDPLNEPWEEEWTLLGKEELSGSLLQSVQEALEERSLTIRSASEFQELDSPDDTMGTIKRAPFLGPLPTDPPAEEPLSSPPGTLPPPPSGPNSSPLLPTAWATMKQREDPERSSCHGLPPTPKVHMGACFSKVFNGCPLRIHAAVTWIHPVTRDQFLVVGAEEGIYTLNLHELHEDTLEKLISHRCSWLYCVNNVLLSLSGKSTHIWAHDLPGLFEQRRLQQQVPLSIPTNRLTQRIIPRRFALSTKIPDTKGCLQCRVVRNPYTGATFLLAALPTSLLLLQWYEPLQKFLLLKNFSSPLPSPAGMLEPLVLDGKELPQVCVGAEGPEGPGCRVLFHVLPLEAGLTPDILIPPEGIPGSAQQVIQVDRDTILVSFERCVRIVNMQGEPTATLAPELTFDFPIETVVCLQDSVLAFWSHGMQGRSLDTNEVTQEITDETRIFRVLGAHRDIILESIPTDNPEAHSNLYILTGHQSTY"}, "[8]": {"details": "read-out: Percent control / Acalabrutinib"}, "[9]": {"details": "read-out: Percent control / Ibrutinib"}, "[10]": {"details": "read-out: Percent control / Tirabrutinib"}, "[11]": {"details": "read-out: Percent control / Zanubrutinib"}}, "note": "Like-named read-outs stand apart in the source and are kept apart here."}
{"compound": "CC#CC(=O)N1CCC[C@H]1c1nc(-c2ccc(C(=O)Nc3ccccn3)cc2)c2c(N)nccn12", "note": "[Acalabrutinib]", "values": [{"measurement": "remaining binding at 0.3 µM", "setting": "[1]; [8]", "value": 95, "unit": "%"}, {"measurement": "remaining binding at 0.3 µM", "setting": "[2]; [8]", "value": 90, "unit": "%"}, {"measurement": "remaining binding at 0.3 µM", "setting": "[3]; [8]", "value": 81, "unit": "%"}, {"measurement": "remaining binding at 0.3 µM", "setting": "[4]; [8]", "value": 95, "unit": "%"}, {"measurement": "remaining binding at 0.3 µM", "setting": "[5]; [8]", "value": 82, "unit": "%"}, {"measurement": "remaining binding at 0.3 µM", "setting": "[6]; [8]", "value": 78, "unit": "%"}]}
{"compound": "C=CC(=O)N1CCC[C@@H](n2nc(-c3ccc(Oc4ccccc4)cc3)c3c(N)ncnc32)C1", "note": "[Ibrutinib]", "values": [{"measurement": "remaining binding at 0.3 µM", "setting": "[7]; [9]", "value": 68, "unit": "%"}, {"measurement": "remaining binding at 0.3 µM", "setting": "[3]; [9]", "value": 42, "unit": "%"}, {"measurement": "remaining binding at 0.3 µM", "setting": "[5]; [9]", "value": 0.2, "unit": "%"}, {"measurement": "remaining binding at 0.3 µM", "setting": "[6]; [9]", "value": 98, "unit": "%"}]}
{"compound": "CC#CC(=O)N1CC[C@@H](n2c(=O)n(-c3ccc(Oc4ccccc4)cc3)c3c(N)ncnc32)C1", "note": "[Tirabrutinib]", "values": [{"measurement": "remaining binding at 0.3 µM", "setting": "[1]; [10]", "value": 94, "unit": "%"}, {"measurement": "remaining binding at 0.3 µM", "setting": "[2]; [10]", "value": 92, "unit": "%"}, {"measurement": "remaining binding at 0.3 µM", "setting": "[7]; [10]", "value": 80, "unit": "%"}, {"measurement": "remaining binding at 0.3 µM", "setting": "[3]; [10]", "value": 77, "unit": "%"}, {"measurement": "remaining binding at 0.3 µM", "setting": "[4]; [10]", "value": 92, "unit": "%"}, {"measurement": "remaining binding at 0.3 µM", "setting": "[5]; [10]", "value": 100, "unit": "%"}]}
{"compound": "C=CC(=O)N1CCC([C@@H]2CCNc3c(C(N)=O)c(-c4ccc(Oc5ccccc5)cc4)nn32)CC1", "note": "[Zanubrutinib]", "values": [{"measurement": "remaining binding at 0.3 µM", "setting": "[1]; [11]", "value": 100, "unit": "%"}, {"measurement": "remaining binding at 0.3 µM", "setting": "[2]; [11]", "value": 82, "unit": "%"}, {"measurement": "remaining binding at 0.3 µM", "setting": "[7]; [11]", "value": 43, "unit": "%"}, {"measurement": "remaining binding at 0.3 µM", "setting": "[4]; [11]", "value": 72, "unit": "%"}, {"measurement": "remaining binding at 0.3 µM", "setting": "[6]; [11]", "value": 92, "unit": "%"}]}
